Here are results for 3 compounds from US11684610B2, “Pharmaceutical composition including 1,2-naphthoquinone derivative compound for prevention or treatment of solid cancers or blood cancers” (YUNGJIN PHARM. CO., LTD., priority 2018, dated 2023).

Usually pIC50 stands for the IC50 on a negative log10 scale, so that one unit is a factor of ten. A high value points to a low IC50.

pIC50: −log10 of the molar value.

Holding throughout (assay type): cell-based, human
For assay [1], the system named is HepG2 (hepatocellular carcinoma). Kind of assay: Cell viability in solid cancer cells, WST assay, HepG2. The following applies: HepG2, 1 to 30 μM, 6 hours. From the text: (§1) To confirm the possibility of use as a therapeutic agent for solid cancer, A549 cell line obtained from a […] with lung carcinoma, Hela cell line obtained from a person with cervix adenocarcinoma, HepG2 cell line obtained from a child with hepatocellular carcinoma, MCF7 cell line obtained from a person with breast adenocarcinoma, and Beas-2B cell line obtained from a normal lung for comparison with solid cancer cell line were used.
(§2) The A549 (lung carcinoma), Hela (cervix adenocarcinoma), HepG2 (hepatocellular carcinoma), MCF7 (breast carcinoma), and Beas-2B (normal lung) cell lines were used in DMEM medium containing 10% FBS, subcultured once every 2 days in an incubator under conditions of 37° C. and 5% CO2 and used in the experiment.
(§3) A549 (lung carcinoma), Hela (cervix adenocarcinoma), HepG2 (hepatocellular carcinoma), MCF7 (breast carcinoma), and Beas-2B (normal lung) cells cultured in Example 6-1 were inoculated into a 96-well plated at 1×10^4 cells/well, and then for the stabilization of cells, the cells were cultured in an incubator at 37° C. and 5% CO2 for 16 hours or more. Subsequently, among the compounds synthesized in Example 1, the compounds 1, 10 and 72 were treated at a concentration of 1 to 30 μM, and then cultured for 6 hours. At this time, DMSO and β-lapachone were used as the control group. After 4 hours of incubation, 10 μl of WST solution was added to each cell, the reaction was carried out for 2 hours, and the absorbance was measured at 450 nm with a multi-scan machine. The cell viabilities of A549 (lung carcinoma), Hela (cervix adenocarcinoma), HepG2 (hepatocellular carcinoma) and MCF7 (breast carcinoma) cells are shown in Table 4 and FIG. 6 below.

For the next assay, the system named is MCF7 (breast carcinoma). Kind of assay: Cell viability in solid cancer cells, WST assay, MCF7. The note with it: MCF7, 1 to 30 μM, 6 hours.
From the text: as §1, §2, §3

Assay [2] relates to Hela (cervix adenocarcinoma). As to the kind of experiment: Cell viability in solid cancer cells, WST assay, Hela. The note with it: 1 to 30 μM, 6 hours.
From the text: as §1, §2, §3

The subject of the next assay is A549 (lung carcinoma). Kind of assay: Cell viability in solid cancer cells, WST assay, A549. The note with it: A549, 1 to 30 μM, 6 hours.
From the text: as §1, §2, §3

Another assay concerns KG1α cells. Kind of assay: Cell viability in KG1α cells, WST assay. The note with it: 0.1 to 3 μM. From the text:
The constructed cell lines were also diverse. Thus, in order to confirm the applicability to a wide range of therapeutic agents that are not therapeutic agents for specific types of acute leukemia, in the present invention, KG1α cells constructed by selecting only cells having a stem cell phenotype from KG1 cells, which are cell lines obtained from a person with acute myelogenous leukemia, were used. HL60 cells, which are cell lines obtained from a person with acute promyelocytic leukemia, and U937 cells, which are cell lines obtained from a person with histiocytic lymphoma, were used.
KG1α and HL60 cells were cultured in IMDM medium containing 20% FBS (fetal bovine serum), and U937 cells were cultured in RPMI 1640 medium containing 10% FBS. All cells were cultured in an incubator under conditions of 37° C. and 5% CO2, and subcultured once every 2 or 3 days and used in the experiment.
KG1α cells are cells resistant to idarubicin and cytarabine, which are the therapeutic agents for acute myeloid leukemia, and are refractory AML cells. KG1α cells cultured in Example 2-1 were cultured into a 96-well plate at 1×10^5 cells/well, and then cultured in an incubator at 37° C. and 5% CO2 for 16 hours or more for the stabilization of cells. […] At this time, DMSO was used as a control group. After 24 hours, each cell was treated with 10 μl of WST solution, reacted for 2 hours, and then absorbance was measured at 450 nm with a multi-scan machine, and the cell viability of KG1α cells was confirmed as shown in Table 4 below.

The next assay deals with K562 cells. Kind of assay: Cell viability in chronic leukemia K562 cells, WST assay. The note with it: 0.1 to 5 μM. The method, then:
K562 cells obtained from a person with chronic myeloid leukemia were cultured in an incubator under conditions of 37° C. and 5% CO2 using RPMI medium containing 10% FBS (fetal bovine serum), and subcultured once every two days and used in the experiment.
The K562 cells cultured in Example 4-1 were inoculated into a 96-well plate at 1×10^5 cells/well, and then, for the stabilization of cells, the cells were cultured in an incubator at 37° C. and 5% CO2 for 16 hours or more. Subsequently, among the compounds synthesized in Example 1, the compounds 1, 10, and 72 and 192 were treated at a concentration of 0.1 to 5 μM and then cultured for 4 hours. At this time, DMSO was used as a control group. After 4 hours of incubation, 10 μl of WST solution was added to each cell and then reacted for 2 hours.

Assay [3] has as its system A549, Hela, HepG2, MCF7 and Beas-2B cells. As to the kind of experiment: Cell viability WST assay, all solid cancer and normal lung lines taken together. The note with it: 6 hours.
From the text: as §1, §2, §3

With `CC1(C)CCC2=C(O1)c1ccccc1C(=O)C2=O` [beta-rapacon, β-lapachone, reference compound], the pIC50 in assay [1] was 4.91; with MCF7 (breast carcinoma) it was 4.88; in assay [2], 5.32; with A549 (lung carcinoma) it was 5.30.

In the case of `CCc1nc2c([nH]1)C(=O)C(=O)c1ccccc1-2` [compound 10], the pIC50 was 4.92 in assay [1] (Homo sapiens); 6.30 in the assay on KG1α cells (24 hours); 6.00 to 6.30 with KG1α cells (Homo sapiens, KG-1, 24 h); 4.85 in the assay on MCF7 (breast carcinoma) (Homo sapiens); 6.05 in the assay with K562 cells (Homo sapiens, K562, 4 h); 5.11 in assay [2] (Homo sapiens). The compound also showed a pIC50 with A549 (lung carcinoma) (Homo sapiens) of 5.26. In assay [3], the “killing effect compared with β-lapachone” value is “killing effect similar to β-lapachone”.

With `O=C1C(=O)c2[nH]c(C3CCCO3)nc2-c2ccccc21` (stereo not drawn) [compound 72], the pIC50 in assay [1] (Homo sapiens) was 4.90; in the assay with KG1α cells (24 hours), 6.15; with KG1α cells (Homo sapiens, KG-1, 24 h), 6.00 to 6.30; in the assay on MCF7 (breast carcinoma) (Homo sapiens), 4.90; with K562 cells (4 hours), 5.85; in the assay with K562 cells (Homo sapiens, K562, 4 h), 5.70 to 6.00. The pIC50 in assay [2] (Homo sapiens) is 5.04; in the assay with A549 (lung carcinoma) (Homo sapiens) it was 5.19. The “killing effect compared with β-lapachone” value in assay [3] is listed as “killing effect similar to β-lapachone”.
